From patent publication US6274715A, “Tricyclic erythromycin derivatives” (priority 1997, dated 2001)
Converted amounts (≈) assume the structure as drawn.

Columns and labels:
Format in all cases: cell-based
[1] = system: MYCOBACTERIUM SMEGMATIS ATCC 114; test: In vitro antibacterial activity, MIC, BHI agar dilution; conditions: M. smegmatis ATCC 114, unit assumed
[2] = system: ENTEROBACTER AEROGENES ATCC 13048; test: as above; conditions: E. aerogenes ATCC 13048, unit assumed
[3] = system: ESCHERICHIA COLI SS; test: as above; conditions: E. coli SS
[4] = system: PSEUDOMONAS AERUGINOSA K799/61; test: as above; conditions: P. aeruginosa K799/61, unit assumed
[5] = system: ACINETOBACTER CALCOACETICUS CMX 669; test: as above; conditions: A. calcoaceticus CMX 669, unit assumed
[6] = system: STAPHYLOCOCCUS AUREUS CMX 553; test: as above; conditions: S. aureus CMX 553, unit assumed
[7] = system: STREPTOCOCCUS BOVIS A-5169; test: as above
[8] = system: STAPHYLOCOCCUS AUREUS A-5278; test: as above
[9] = system: PSEUDOMONAS CEPACIA 296I; test: as above; conditions: P. cepacia 296I, unit assumed
[10] = system: ESCHERICHIA COLI DC-2; test: as above; conditions: E. coli DC-2, unit assumed
[11] = system: PROVIDENCIA STUARTII CMX 640; conditions: P. stuartii CMX 640; BHI agar; unit assumed
[12] = system: PSEUDOMONAS AERUGINOSA 5007; test: In vitro antibacterial activity, MIC, BHI agar dilution; conditions: P. aeruginosa 5007, unit assumed
[13] = system: STAPHYLOCOCCUS AUREUS 1775; test: as above; conditions: S. aureus 1775, unit assumed
[14] = system: ESCHERICHIA COLI JUHL; conditions: E. coli JUHL; BHI agar; unit assumed
[15] = system: ESCHERICHIA COLI H560; test: In vitro antibacterial activity, MIC, BHI agar dilution; conditions: E. coli H560, unit assumed
[16] = system: STAPHYLOCOCCUS AUREUS CMX 642A; test: as above; conditions: S. aureus CMX 642A, unit assumed
[17] = system: STAPHYLOCOCCUS AUREUS A5177; test: as above; conditions: S. aureus A5177, unit assumed
[18] = system: KLEBSIELLA PNEUMONIAE ATCC 8045; test: as above; conditions: K. pneumoniae ATCC 8045, unit assumed
[19] = system: STREPTOCOCCUS PYOGENES 930; test: as above; conditions: S. pyogenes 930, unit assumed
[20] = system: PSEUDOMONAS AERUGINOSA DPHD-5263; test: as above; conditions: P. aeruginosa DPHD-5263, unit assumed
[21] = system: CANDIDA ALBICANS CCH 442; test: as above; conditions: C. albicans CCH 442, unit assumed
[22] = system: STREPTOCOCCUS PYOGENES EES61; test: as above
[23] = system: PSEUDOMONAS AERUGINOSA DPHD-2862; test: as above; conditions: P. aeruginosa DPHD-2862, unit assumed
[24] = system: PSEUDOMONAS AERUGINOSA BMH10; test: as above; conditions: P. aeruginosa BMH10, unit assumed
[25] = system: STREPTOCOCCUS PYOGENES PIU 2548; test: as above; conditions: S. pyogenes PIU 2548, unit assumed
[26] = system: PSEUDOMONAS AERUGINOSA K799/WT; test: as above; conditions: P. aeruginosa K799/WT, unit assumed
[27] = system: M[…] ATCC 9341; test: as above; conditions: M. luteus ATCC 9341, unit assumed
In short: (§1)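 MIC was read visually as the lowest drug concentration showing no growth, a slight haze or sparsely isolated colonies relative to a compound-free BHI plate. Plates held serial aqueous dilutions in BHI agar, were spot-inoculated with 1:100 (or 1:10) culture dilutions and incubated 20 to 24 hours at 35-37° C.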

[28] = system: STR[…] 508; test: as above; conditions: S. agalactiae CMX 508, unit assumed
In short: as §1

[29] = system: EN[…] ATCC 8043; test: as above; conditions: E. faecium ATCC 8043, unit assumed
In short: as §1

[30] = system: M[…] ATCC 4698; test: as above
In short: as §1

[31] = system: STAPHYLOCOCCUS EPIDERMIDIS 3519; conditions: S. epidermidis 3519; BHI agar; unit assumed
[32] = system: ESCHERICHIA COLI KNK 437; conditions: E. coli KNK 437; BHI agar; unit assumed
[33] = system: STAPHYLOCOCCUS AUREUS ATCC 6538P; test: In vitro antibacterial activity, MIC, BHI agar dilution; conditions: S. aureus ATCC 6538P, 35-37° C., 20 to 24 hours, unit assumed
[34] = system: STAPHYLOCOCCUS AUREUS NCTC10649M; test: as above; conditions: S. aureus NCTC10649M, unit assumed
[35] = S. pyogenes EES61, unit assumed
[36] = M. luteus ATCC 4698, unit assumed

CC[C@H]1OC(=O)[C@H](C)C(=O)[C@H](C)[C@@H](O[C@@H]2O[C@H](C)C[C@H](N(C)C)[C@H]2O)[C@](C)(OC)C[C@@H](C)C2=N[C@@H]3CN(C(=O)OCc4ccccc4)C[C@@H]3N3C(=O)O[C@@]1(C)[C@H]3[C@H]2C [Example 20]
MIC [1]: 3.1 µg/mL (≈ 3.81 µM) | MIC [2]: > 100 µg/mL | MIC ([3]; unit assumed): 3.1 µg/mL (≈ 3.81 µM) | MIC [4]: 6.2 µg/mL (≈ 7.63 µM) | MIC [5]: 100 µg/mL (≈ 123 µM) | MIC [6]: 1.56 µg/mL (≈ 1.92 µM) | MIC ([7]; S. bovis A-5169, unit assumed): 0.1 µg/mL (≈ 0.123 µM) | MIC ([8]; S. aureus A-5278, unit assumed): > 100 µg/mL | MIC [9]: > 100 µg/mL | MIC [10]: > 100 µg/mL | MIC [11]: > 100 µg/mL | MIC [12]: > 100 µg/mL | MIC [13]: > 100 µg/mL | MIC [14]: > 100 µg/mL | MIC [15]: 100 µg/mL (≈ 123 µM) | MIC [16]: 1.56 µg/mL (≈ 1.92 µM) | MIC [17]: 0.78 µg/mL (≈ 0.959 µM) | MIC [18]: > 100 µg/mL | MIC [19]: > 100 µg/mL | MIC [20]: > 100 µg/mL | MIC [21]: > 100 µg/mL | MIC [22, 35]: 0.005 µg/mL (≈ 0.00615 µM) | MIC [23]: > 100 µg/mL | MIC [24]: > 100 µg/mL | MIC [25]: 0.78 µg/mL (≈ 0.959 µM) | MIC [26]: > 100 µg/mL | MIC [27]: 0.39 µg/mL (≈ 0.48 µM) | MIC [28]: 0.1 µg/mL (≈ 0.123 µM) | MIC [29]: 0.39 µg/mL (≈ 0.48 µM) | MIC [30, 36]: 0.78 µg/mL (≈ 0.959 µM) | MIC [31]: 0.78 µg/mL (≈ 0.959 µM) | MIC [32]: > 100 µg/mL

CC[C@H]1OC(=O)[C@H](C)C(=O)[C@H](C)[C@@H](O[C@@H]2O[C@H](C)C[C@H](N(C)C)[C@H]2O)[C@](C)(OC)C[C@@H](C)C2=NC3CN(CCOc4ccccc4)CC3N3C(=O)O[C@@]1(C)[C@H]3[C@H]2C (some centres unmarked) [Example 128]
MIC [1]: 1.56 µg/mL (≈ 1.95 µM) | MIC [2]: > 100 µg/mL | MIC ([3]; unit assumed): 1.56 µg/mL (≈ 1.95 µM) | MIC [4]: 6.2 µg/mL (≈ 7.76 µM) | MIC [5]: 100 µg/mL (≈ 125 µM) | MIC [6]: 0.39 µg/mL (≈ 0.488 µM) | MIC ([7]; S. bovis A-5169, unit assumed): ≤ 0.005 µg/mL | MIC [33]: 0.39 µg/mL (≈ 0.488 µM) | MIC ([8]; S. aureus A-5278, unit assumed): > 100 µg/mL | MIC [9]: > 100 µg/mL | MIC [10]: > 100 µg/mL | MIC [11]: > 100 µg/mL | MIC [12]: > 100 µg/mL | MIC [13]: > 100 µg/mL | MIC [14]: 100 µg/mL (≈ 125 µM) | MIC [15]: > 100 µg/mL | MIC [16]: 0.39 µg/mL (≈ 0.488 µM) | MIC [17]: 0.39 µg/mL (≈ 0.488 µM) | MIC [18]: > 100 µg/mL | MIC [19]: > 100 µg/mL | MIC [20]: > 100 µg/mL | MIC [34]: 0.39 µg/mL (≈ 0.488 µM) | MIC [21]: > 100 µg/mL | MIC [22, 35]: ≤ 0.005 µg/mL | MIC [23]: > 100 µg/mL | MIC [24]: > 100 µg/mL | MIC [25]: 0.78 µg/mL (≈ 0.976 µM) | MIC [26]: > 100 µg/mL | MIC [27]: 0.05 µg/mL (≈ 0.0626 µM) | MIC [29]: 0.1 µg/mL (≈ 0.125 µM) | MIC [30, 36]: 0.39 µg/mL (≈ 0.488 µM) | MIC [31]: 0.39 µg/mL (≈ 0.488 µM) | MIC [32]: > 100 µg/mL

CC[C@H]1OC(=O)[C@H](C)C(=O)[C@H](C)[C@@H](O[C@@H]2O[C@H](C)C[C@H](N(C)C)[C@H]2O)[C@](C)(OC)C[C@@H](C)C2=NC(COCc3ccc(Cl)cc3)C(COCc3ccc(Cl)cc3)N3C(=O)O[C@@]1(C)[C@H]3[C@H]2C (some centres unmarked) [Example 147]
MIC [1]: 1.56 µg/mL (≈ 1.65 µM) | MIC [2]: > 100 µg/mL | MIC ([3]; listed as Ex 147, unit assumed): > 100 µg/mL | MIC [5]: > 100 µg/mL | MIC [6]: 1.56 µg/mL (≈ 1.65 µM) | MIC ([7]; S. bovis A-5169, listed as Ex 147, unit assumed): 0.39 µg/mL (≈ 0.412 µM) | MIC [33]: 1.56 µg/mL (≈ 1.65 µM) | MIC ([8]; S. aureus A-5278, listed as Ex 147, unit assumed): 6.2 µg/mL (≈ 6.55 µM) | MIC [9]: > 100 µg/mL | MIC [10]: > 100 µg/mL | MIC [11]: > 100 µg/mL | MIC [12]: > 100 µg/mL | MIC [13]: 12.5 µg/mL (≈ 13.2 µM) | MIC [14]: > 100 µg/mL | MIC [15]: > 100 µg/mL | MIC [16]: 1.56 µg/mL (≈ 1.65 µM) | MIC [17]: 1.56 µg/mL (≈ 1.65 µM) | MIC [18]: > 100 µg/mL | MIC [19]: 3.1 µg/mL (≈ 3.27 µM) | MIC [20]: > 100 µg/mL | MIC [34]: 1.56 µg/mL (≈ 1.65 µM) | MIC [21]: 50 µg/mL (≈ 52.8 µM) | MIC ([22]; S. pyogenes EES61, listed as Ex 147, unit assumed): 0.78 µg/mL (≈ 0.824 µM) | MIC [23]: > 100 µg/mL | MIC [24]: > 100 µg/mL | MIC [25]: 3.1 µg/mL (≈ 3.27 µM) | MIC [26]: > 100 µg/mL | MIC [27]: 0.39 µg/mL (≈ 0.412 µM) | MIC [28]: 0.78 µg/mL (≈ 0.824 µM) | MIC [29]: 0.78 µg/mL (≈ 0.824 µM) | MIC ([30]; M. luteus ATCC 4698, listed as Ex 147, unit assumed): 3.1 µg/mL (≈ 3.27 µM) | MIC [31]: 1.56 µg/mL (≈ 1.65 µM) | MIC [32]: > 100 µg/mL
